The NIST ThermoML archive (doi:10.1016/j.fluid.2010.10.028)

Test: xn = mol fraction of the nth substance listed
Conditions: Liquid, Vibrating tube method

CC(C)=O [acetone] + CCCCCCC
Conditions	mass density [kg/m3]
367.48 K, 69840 kPa, x1 = 0.8992	761.04
367.48 K, 74790 kPa, x1 = 0.7024	736.93
367.48 K, 74820 kPa, x1 = 0.4	764.83
367.48 K, 74820 kPa, x1 = 0.8992	764.83
367.48 K, 74880 kPa, x1 = 0.611	727.57
367.48 K, 79790 kPa, x1 = 0.4	768.48
367.48 K, 79790 kPa, x1 = 0.8992	768.48
367.48 K, 84760 kPa, x1 = 0.7024	743.91
367.48 K, 84780 kPa, x1 = 0.4	772.02
367.48 K, 84780 kPa, x1 = 0.8992	772.02
367.48 K, 84860 kPa, x1 = 0.611	734.42
367.48 K, 89740 kPa, x1 = 0.4	775.41
367.48 K, 89740 kPa, x1 = 0.8992	775.41
367.48 K, 89840 kPa, x1 = 0.611	737.67
367.48 K, 94810 kPa, x1 = 0.611	740.81
367.48 K, 99700 kPa, x1 = 0.4	781.91
367.48 K, 99700 kPa, x1 = 0.8992	781.91
367.48 K, 104670 kPa, x1 = 0.4	785.01
367.48 K, 104670 kPa, x1 = 0.8992	785.01
367.48 K, 104780 kPa, x1 = 0.611	746.78
367.48 K, 109630 kPa, x1 = 0.4	788.01
367.48 K, 109630 kPa, x1 = 0.8992	788.01
367.48 K, 114860 kPa, x1 = 0.611	752.48
367.48 K, 119560 kPa, x1 = 0.4	793.8
367.48 K, 119560 kPa, x1 = 0.8992	793.8
367.48 K, 119860 kPa, x1 = 0.611	755.19
367.48 K, 124530 kPa, x1 = 0.4	796.59
367.48 K, 124530 kPa, x1 = 0.8992	796.59
367.48 K, 129810 kPa, x1 = 0.4	799.46
367.48 K, 129810 kPa, x1 = 0.8992	799.46
367.49 K, 1150 kPa, x1 = 0.492	636.24
367.49 K, 1160 kPa, x1 = 0.801	665.36
367.49 K, 1370 kPa, x1 = 0.4	680.97
367.49 K, 1370 kPa, x1 = 0.8992	680.97
367.49 K, 4860 kPa, x1 = 0.801	672.53
367.49 K, 4870 kPa, x1 = 0.492	643.34
367.49 K, 4870 kPa, x1 = 0.611	651.91
367.49 K, 9840 kPa, x1 = 0.801	681.17
367.49 K, 9860 kPa, x1 = 0.492	651.84
367.49 K, 14860 kPa, x1 = 0.801	688.96
367.49 K, 14870 kPa, x1 = 0.492	659.41
367.49 K, 14880 kPa, x1 = 0.611	668.22
367.49 K, 19850 kPa, x1 = 0.801	696.01
367.49 K, 19860 kPa, x1 = 0.492	666.25
367.49 K, 24850 kPa, x1 = 0.801	702.51
367.49 K, 29860 kPa, x1 = 0.801	708.54
367.49 K, 34850 kPa, x1 = 0.492	683.77
367.49 K, 34860 kPa, x1 = 0.801	714.16
367.49 K, 34950 kPa, x1 = 0.4	729.18
367.49 K, 34950 kPa, x1 = 0.8992	729.18
367.49 K, 39860 kPa, x1 = 0.611	698.15
367.49 K, 44850 kPa, x1 = 0.492	693.62
367.49 K, 54840 kPa, x1 = 0.801	733.6
367.49 K, 59920 kPa, x1 = 0.611	716.21
367.49 K, 69900 kPa, x1 = 0.611	723.93
367.49 K, 79870 kPa, x1 = 0.611	731.07
367.49 K, 94730 kPa, x1 = 0.4	778.72
367.49 K, 94730 kPa, x1 = 0.8992	778.72
367.49 K, 99800 kPa, x1 = 0.611	743.84
367.49 K, 99840 kPa, x1 = 0.492	733.62
367.49 K, 104810 kPa, x1 = 0.492	736.49
367.49 K, 109800 kPa, x1 = 0.492	739.28
367.49 K, 109850 kPa, x1 = 0.611	749.68
367.49 K, 114600 kPa, x1 = 0.4	790.95
367.49 K, 114600 kPa, x1 = 0.8992	790.95
367.49 K, 114760 kPa, x1 = 0.492	742
367.49 K, 119830 kPa, x1 = 0.492	744.68
367.49 K, 124840 kPa, x1 = 0.492	747.26
367.49 K, 124860 kPa, x1 = 0.611	757.81
367.49 K, 129850 kPa, x1 = 0.492	749.77
367.49 K, 129850 kPa, x1 = 0.611	760.39
367.5 K, 24850 kPa, x1 = 0.492	672.52
367.5 K, 29850 kPa, x1 = 0.492	678.35
367.5 K, 39850 kPa, x1 = 0.801	719.44
367.5 K, 39860 kPa, x1 = 0.492	688.84
367.5 K, 44870 kPa, x1 = 0.801	724.43
367.5 K, 49850 kPa, x1 = 0.492	698.13
367.5 K, 49850 kPa, x1 = 0.801	729.14
367.5 K, 54850 kPa, x1 = 0.492	702.41
367.5 K, 59830 kPa, x1 = 0.801	737.85
367.5 K, 59870 kPa, x1 = 0.492	706.5
367.5 K, 64830 kPa, x1 = 0.492	710.35
367.5 K, 64930 kPa, x1 = 0.801	742.02
367.5 K, 69830 kPa, x1 = 0.492	714.07
367.5 K, 69910 kPa, x1 = 0.801	745.93
367.5 K, 74910 kPa, x1 = 0.801	749.67
367.5 K, 74930 kPa, x1 = 0.492	717.72
367.5 K, 79900 kPa, x1 = 0.801	753.27
367.5 K, 79920 kPa, x1 = 0.492	721.13
367.5 K, 84870 kPa, x1 = 0.801	756.74
367.5 K, 84880 kPa, x1 = 0.492	724.42
